From paper PMC9240639, “Williams-Beuren Syndrome Related Methyltransferase WBSCR27: From Structure to Possible Function” (Frontiers in Molecular Biosciences, 2022)

Molecular target: T1, WBSCR27 (Mus musculus, UniProt Q8BGM4)
T1 construct: gene Mettl27; recombinant in E. coli, Ni-NTA, His-tag cleaved; isotope-labelled for NMR
T1 sequence (Q8BGM4 1-238): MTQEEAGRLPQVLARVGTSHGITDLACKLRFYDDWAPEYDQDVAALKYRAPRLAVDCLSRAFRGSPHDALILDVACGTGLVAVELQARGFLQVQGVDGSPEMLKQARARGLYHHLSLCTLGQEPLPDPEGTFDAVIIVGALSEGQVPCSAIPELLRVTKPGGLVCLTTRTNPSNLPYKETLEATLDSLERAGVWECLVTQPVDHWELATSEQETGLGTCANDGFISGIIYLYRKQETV
Test: […],1H HSQC NMR of epimer mixture with protein
Assay type: binding
Conditions: 308 K, labelled compound (methyl 13C), 0.05 mM each

SMILES: C[S+](CC[C@H](N)C(=O)O)C[C@H]1O[C@@H](n2cnc3c(N)ncnc32)[C@H](O)[C@@H]1O (mixture of isomers) [(R,S)-SAM]
- 13C,1H HSQC NMR of epimer mixture with protein (equimolar mixture with (S,S)-SAM, seen bound only at the higher protein ratio): This indicates a significantly lower affinity of the (R,S)-epimer compared with the (S,S)-epimer

SMILES: C[S+](CC[C@H](N)C(=O)O)C[C@H]1O[C@@H](n2cnc3c(N)ncnc32)[C@H](O)[C@@H]1O (stereo partly drawn) [(S,S)-SAM]
- 13C,1H HSQC NMR of epimer mixture with protein (equimolar mixture with (R,S)-SAM): WBSCR27 preferably binds the (S,S) stereoisomer
